Laboratory results as given in PubChem BioAssay (NCI).
Values joined by “and” are separate entries in the source; they are usually repeats but may differ in a detail not shown here. Identical values can stand only once.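 How tested: cells in 96-well plates exposed to compound for 48 hours at five concentrations. GI50 is the concentration that inhibits growth by half. At the TGI there is no net growth.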

Columns and labels:
Assay in all cases: growth of human tumour cells (NCI), 48 h
EKVX NSCLC = system: EKVX NSCLC
OVCAR-4 ovarian = system: OVCAR-4 ovarian
SF-295 CNS = system: SF-295 CNS
TK-10 renal = system: TK-10 renal
KM20L2 colon = system: KM20L2 colon
DLD-1 colon = system: DLD-1 colon
UACC-62 melanoma = system: UACC-62 melanoma
MALME-3M melanoma = system: MALME-3M melanoma
A549 NSCLC = system: A549 NSCLC
MDA-MB-231 breast = system: MDA-MB-231 breast

| Compound | GI50 (EKVX NSCLC) [µM] | TGI (EKVX NSCLC) | GI50 (OVCAR-4 ovarian) [µM] | TGI (OVCAR-4 ovarian) | GI50 (SF-295 CNS) [µM] | TGI (SF-295 CNS) | TGI (TK-10 renal) [µM] | GI50 (KM20L2 colon) [µM] | TGI (KM20L2 colon) | GI50 (DLD-1 colon) [µM] | TGI (DLD-1 colon) | GI50 (UACC-62 melanoma) [µM] | TGI (UACC-62 melanoma) | GI50 (MALME-3M melanoma) [µM] | TGI (MALME-3M melanoma) | GI50 (A549 NSCLC) [µM] | TGI (A549 NSCLC) | GI50 (MDA-MB-231 breast) [µM] | TGI (MDA-MB-231 breast) [µM] | GI50 (TK-10 renal) [µM] |
| --- | --- | --- | --- | --- | --- | --- | --- | --- | --- | --- | --- | --- | --- | --- | --- | --- | --- | --- | --- | --- |
| CSCS(=O)C[C@H](CO)NC(=O)/C=C/c1c(C)[nH]c(=O)[nH]c1=O (stereo not given in full) | 3.3 | 12.7 µM and 4.98 µM | 0.296 | 1.07 µM and 0.994 µM | 0.406 | 2.64 µM and 2.37 µM | > 29.5 | 2.07 | 12 µM and 4.35 µM | 2.23 | > 23.4 µM and 7.25 µM | 1.39 | 4.56 µM and 3.44 µM | 1.08 | 3.08 µM and 2.05 µM | 1.99 | 8.93 µM and 5.64 µM |  |  |  |
| CCCc1n(Cc2ccc3ccccc3c2)cc[n+]1Cc1ccc2ccccc2c1 | 1.71 | 11.4 µM | 0.398 | 1.61 µM | 1.44 | 3.34 µM | 2.7 |  |  |  |  | 0.647 | 2.02 µM | 0.876 | 2.58 µM | 2.67 | 12.1 µM | 1.06 | 2.54 | 1.28 |
| O=C(Nc1cccc2c1C(=O)c1c(NC(=O)c3ccccc3)ccc(Nc3cccc4c3C(=O)c3ccccc3C4=O)c1C2=O)c1ccccc1 |  | > 100 µM |  | > 100 µM |  |  | > 100 |  | > 100 µM |  | > 100 µM |  | > 100 µM |  | > 100 µM |  | > 100 µM |  |  |  |
| CC(=O)O[C@H]([C@H](OC(C)=O)[C@H](C)OC(C)=O)[C@@H](/C=C/[C@@H]1CC=CC(=O)O1)OC(C)=O | > 100 | > 100 µM | 45.3 | > 100 µM | 15.8 | 45.9 µM | > 100 |  |  |  |  | > 100 | > 100 µM | > 100 | > 100 µM | > 100 | > 100 µM | > 100 | > 100 | > 100 |
| COC(=O)c1ccccc1N(C(=O)c1ccccc1)c1ccccc1C |  | > 100 µM |  | > 100 µM |  | > 100 µM | > 100 |  | > 100 µM |  | > 100 µM |  | > 100 µM |  | > 100 µM |  | > 100 µM |  |  |  |
| C=C1C(=O)O[C@H]2[C@H]1CC/C(COC(=O)NCc1c[nH]c3ccccc13)=C\CC[C@@]1(C)O[C@@H]21 | 2.23 | 8.84 µM | 4.5 | 18.6 µM | 12.1 | 24.7 µM | 5.65 |  |  |  |  | 1.72 | 3.95 µM | 2.02 | 5.21 µM | 12.5 | 28.6 µM | 1.91 | 4.98 | 2.55 |
| C[C@H]1/C(=C/C(=O)OCCN(C)C)CC[C@H]2[C@H]1C(=O)C[C@H]1C(C)(C)[C@@H](O)CC[C@]21C |  | > 100 µM |  | > 100 µM |  | > 100 µM | > 100 |  |  |  |  |  | > 100 µM |  | > 100 µM |  | > 100 µM |  | > 100 |  |
| CCCCCOCC(O)CO (stereo not given) |  | > 100 µM |  | > 100 µM |  | > 100 µM | > 100 |  | > 100 µM |  | > 100 µM |  | > 100 µM |  | > 100 µM |  | > 100 µM |  |  |  |
| Cc1ccc2oc(=O)cc(/C(=C3/C=CC=N3)c3ccc[nH]3)c2c1 | 0.435 | 4.51 µM | 1.58 | 9.56 µM | 0.215 | 0.667 µM | 4.87 |  |  |  |  | 0.373 | 1.98 µM | 0.782 | 3.82 µM | 0.59 | 10.9 µM | 0.802 | 3.07 | 0.47 |
